Source: ChEMBL document CHEMBL1255278, “Caspofungin prolongs survival of transiently neutropenic rats with advanced-stage invasive pulmonary aspergillosis” (Antimicrob Agents Chemother, 2008)
≈ marks a conversion by molar mass, not a printed value.

How the values were obtained:
Rattus norvegicus [1] = assay: Renal toxicity in neutropenic rat assessed as blood urea nitrogen level in serum at 10 mg/kg/day, ip administered 72 hrs post infection for 10 days measured on day 6 after infection (Rvb=4.4+/-0.5 mmol/l); format: organism-based; design: route intraperitoneal; conditions: in vivo
Rattus norvegicus [2] = assay: Renal toxicity in neutropenic rat assessed as blood urea nitrogen level in serum at 10 mg/kg/day, ip administered 72 hrs post infection for 3 days followed by 4 mg/kg/day, ip for 7 days measured on day 6 after infection (Rvb=4.4+/-0.5 mmol/l); format: organism-based; conditions: in vivo
Aspergillus fumigatus [3] = assay: Antifungal activity against Aspergillus fumigatus infected in neutropenic rat assessed as survival of rat at 4 mg/kg/day, ip administered 16 hrs post infection for 10 days; format: functional; conditions: route intraperitoneal
Rattus norvegicus [4] = assay: Renal toxicity in neutropenic rat assessed as blood urea nitrogen level in serum at 10 mg/kg/day, ip administered 72 hrs post infection for 3 days followed by 4 mg/kg/day, ip for 7 days measured on day 13 after infection (Rvb=5.8+/-0.4 mmol/l); format: organism-based; conditions: in vivo
[5] = AUC in neutropenic rat at 10 mg/kg/day for 3 days followed by 4 mg/kg/day for 7 days measured after 10 days; format: ADME, organism-based; conditions: plasma
Aspergillus fumigatus [6] = assay: Antifungal activity against Aspergillus fumigatus infected in neutropenic rat assessed as survival of rat at 10 mg/kg/day, ip administered 72 hrs post infection for 10 days; format: functional; conditions: route intraperitoneal
Rattus norvegicus [7] = assay: Renal toxicity in neutropenic rat assessed as blood urea nitrogen level in serum at 4 mg/kg/day, ip administered 72 hrs post infection for 10 days measured on day 13 after infection (Rvb=5.8+/-0.4 mmol/l); format: organism-based; design: route intraperitoneal; conditions: in vivo
Rattus norvegicus [8] = assay: Hepatotoxicity in neutropenic rat assessed as ASAT level in serum at 10 mg/kg/day, ip administered 72 hrs post infection for 10 days measured on day 6 after infection (Rvb=51.2+/-9.4 U/l); format: toxicity, organism-based; design: route intraperitoneal; conditions: in vivo
Rattus norvegicus [9] = assay: Renal toxicity in neutropenic rat assessed as creatine level in serum at 4 mg/kg/day, ip administered 72 hrs post infection for 10 days measured on day 13 after infection (Rvb=26.7+/-6.1 umol/l); format: organism-based; design: route intraperitoneal; conditions: in vivo
Aspergillus fumigatus [10] = assay: Antifungal activity against Aspergillus fumigatus by Etest method; format: functional
Aspergillus fumigatus [11] = assay: Antifungal activity against Aspergillus fumigatus infected in neutropenic rat assessed as survival of rat at 4 mg/kg/day, ip administered 24 hrs post infection for 10 days; format: functional; conditions: route intraperitoneal
Aspergillus fumigatus [12] = assay: Antifungal activity against Aspergillus fumigatus infected in neutropenic rat assessed as survival of rat at 4 mg/kg/day, ip administered 72 hrs post infection for 10 days; format: functional; conditions: route intraperitoneal
Rattus norvegicus [13] = assay: Renal toxicity in neutropenic rat assessed as blood urea nitrogen level in serum at 10 mg/kg/day, ip administered 72 hrs post infection for 10 days measured on day 13 (Rvb=5.8+/-0.4 mmol/l); format: organism-based; design: route intraperitoneal; conditions: in vivo
Rattus norvegicus [14] = assay: Hepatotoxicity in neutropenic rat assessed as ASAT level in serum at 10 mg/kg/day, ip administered 72 hrs post infection for 3 days followed by 4 mg/kg/day, ip for 7 days measured on day 13 after infection (Rvb=46.6+/-6.1 U/l); format: toxicity, organism-based; conditions: in vivo
Rattus norvegicus [15] = assay: Renal toxicity in neutropenic rat assessed as creatine level in serum at 4 mg/kg/day, ip administered 72 hrs post infection for 10 days measured on day 6 after infection (Rvb=34.8+/-5.8 umol/l); format: organism-based; design: route intraperitoneal; conditions: in vivo
Rattus norvegicus [16] = assay: Hepatotoxicity in neutropenic rat assessed as ALAT level in serum at 10 mg/kg/day, ip administered 72 hrs post infection for 10 days measured on day 13 after infection (Rvb=51.3+/-5.2 U/l); format: toxicity, organism-based; design: route intraperitoneal; conditions: in vivo
Rattus norvegicus [17] = assay: Hepatotoxicity in neutropenic rat assessed as ASAT level in serum at 10 mg/kg/day, ip administered 72 hrs post infection for 3 days followed by 4 mg/kg/day, ip for 7 days measured on day 6 after infection (Rvb=51.2+/-9.4 U/l); format: toxicity, organism-based; conditions: in vivo
Rattus norvegicus [18] = assay: Hepatotoxicity in neutropenic rat assessed as ALAT level in serum at 10 mg/kg/day, ip administered 72 hrs post infection for 10 days measured on day 6 after infection (Rvb=43.9+/-7.9 U/l); format: toxicity, organism-based; design: route intraperitoneal; conditions: in vivo
Rattus norvegicus [19] = assay: Renal toxicity in neutropenic rat assessed as […] in serum at 10 mg/kg/day, ip administered 72 hrs post infection for 3 days followed by 4 mg/kg/day, ip for 7 days measured on day 13 after infection (Rvb=26.7+/-6.1 umol/l); format: organism-based; conditions: in vivo
Rattus norvegicus [20] = assay: Hepatotoxicity in neutropenic rat assessed as ASAT level in serum at 4 mg/kg/day, ip administered 72 hrs post infection for 10 days measured on day 13 after infection (Rvb=46.6+/-6.1 U/l); format: toxicity, organism-based; design: route intraperitoneal; conditions: in vivo
Rattus norvegicus [21] = assay: Renal toxicity in neutropenic rat assessed as blood urea nitrogen level in serum at 4 mg/kg/day, ip administered 72 hrs post infection for 10 days measured on day 6 after infection (Rvb=4.4+/-0.5 mmol/l); format: organism-based; design: route intraperitoneal; conditions: in vivo
Rattus norvegicus [22] = assay: Hepatotoxicity in neutropenic rat assessed as ALAT level in serum at 4 mg/kg/day, ip administered 72 hrs post infection for 10 days measured on day 6 after infection (Rvb=43.9+/-7.9 U/l); format: toxicity, organism-based; design: route intraperitoneal; conditions: in vivo
Rattus norvegicus [23] = assay: Renal toxicity in neutropenic rat assessed as creatine level in serum at 10 mg/kg/day, ip administered 72 hrs post infection for 10 days measured on day 13 after infection (Rvb=26.7+/-6.1 umol/l); format: organism-based; design: route intraperitoneal; conditions: in vivo
Rattus norvegicus [24] = assay: Hepatotoxicity in neutropenic rat assessed as ALAT level in serum at 10 mg/kg/day, ip administered 72 hrs post infection for 3 days followed by 4 mg/kg/day, ip for 7 days measured on day 6 after infection (Rvb=43.9+/-7.9 U/l); format: toxicity, organism-based; conditions: in vivo
Rattus norvegicus [25] = assay: Hepatotoxicity in neutropenic rat assessed as ALAT level in serum at 10 mg/kg/day, ip administered 72 hrs post infection for 3 days followed by 4 mg/kg/day, ip for 7 days measured on day 13 after infection (Rvb=51.3+/-5.2 U/l); format: toxicity, organism-based; conditions: in vivo
Rattus norvegicus [26] = assay: Hepatotoxicity in neutropenic rat assessed as ASAT level in serum at 10 mg/kg/day, ip administered 72 hrs post infection for 10 days measured on day 13 after infection (Rvb=46.6+/-6.1 U/l); format: toxicity, organism-based; design: route intraperitoneal; conditions: in vivo
Rattus norvegicus [27] = assay: Renal toxicity in neutropenic rat assessed as creatine level in serum at 10 mg/kg/day, ip administered 72 hrs post infection for 3 days followed by 4 mg/kg/day, ip for 7 days measured on day 6 after infection (Rvb=34.8+/-5.8 umol/l); format: organism-based; conditions: in vivo
Aspergillus fumigatus [28] = assay: Antifungal activity against Aspergillus fumigatus by CLSI method; format: functional
Rattus norvegicus [29] = assay: Hepatotoxicity in neutropenic rat assessed as ALAT level in serum at 4 mg/kg/day, ip administered 72 hrs post infection for 10 days measured on day 13 after infection (Rvb=51.3+/-5.2 U/l); format: toxicity, organism-based; design: route intraperitoneal; conditions: in vivo
[30] = AUC in neutropenic rat at 10 mg/kg/day after 3 days; format: ADME, organism-based; conditions: plasma
Rattus norvegicus [31] = assay: Renal toxicity in neutropenic rat assessed as […] in serum at 10 mg/kg/day, ip administered 72 hrs post infection for 10 days measured on day 6 after infection (Rvb=34.8+/-5.8 umol/l); format: organism-based; design: route intraperitoneal; conditions: in vivo
Rattus norvegicus [32] = assay: Hepatotoxicity in neutropenic rat assessed as ASAT level in serum at 4 mg/kg/day, ip administered 72 hrs post infection for 10 days measured on day 6 after infection (Rvb=51.2+/-9.4 U/l); format: toxicity, organism-based; design: route intraperitoneal; conditions: in vivo

CC[C@H](C)C[C@H](C)CCCCCCCCC(=O)N[C@H]1C[C@@H](O)[C@@H](NCCN)NC(=O)[C@@H]2[C@@H](O)CCN2C(=O)[C@H]([C@H](O)CCN)NC(=O)[C@H]([C@H](O)[C@@H](O)c2ccc(O)cc2)NC(=O)[C@@H]2C[C@@H](O)CN2C(=O)[C@H]([C@@H](C)O)NC1=O [CASPOFUNGIN]
Activity (Rattus norvegicus [1]): 10.9 mmol/L
Activity (Rattus norvegicus [2]): 5.9 mmol/L
Activity (Aspergillus fumigatus [3]): 100%
Activity (Rattus norvegicus [4]): 6.9 mmol/L
AUC at 240 h [5]: 114 µg·h/mL
Activity (Aspergillus fumigatus [6]): 67%
Activity (Rattus norvegicus [7]): 15.7 mmol/L
Activity (Rattus norvegicus [8]): 113 U/L
Activity (Rattus norvegicus [9]): 24 µmol/L
MIC (Aspergillus fumigatus [10]): 0.05 µg/mL (≈ 0.0457 µM)
Activity (Aspergillus fumigatus [11]): 93%
Activity (Aspergillus fumigatus [12]): 27%
Activity (Rattus norvegicus [13]): 11.4 mmol/L
Activity (Rattus norvegicus [14]): 50.2 U/L
Activity (Rattus norvegicus [15]): 44.3 µmol/L
Activity (Rattus norvegicus [16]): 36.4 U/L
Activity (Rattus norvegicus [17]): 49.3 U/L
Activity (Rattus norvegicus [18]): 31.5 U/L
Activity (Rattus norvegicus [19]): 31 µmol/L
Activity (Rattus norvegicus [20]): 138.4 U/L
Activity (Rattus norvegicus [21]): 12.2 mmol/L
Activity (Rattus norvegicus [22]): 41.4 U/L
Activity (Rattus norvegicus [23]): 28.4 µmol/L
Activity (Rattus norvegicus [24]): 61.6 U/L
Activity (Rattus norvegicus [25]): 50.5 U/L
Activity (Rattus norvegicus [26]): 68 U/L
Activity (Rattus norvegicus [27]): 36.5 µmol/L
MIC (Aspergillus fumigatus [28]): 8 µg/mL (≈ 7.32 µM)
Activity (Rattus norvegicus [29]): 94.2 U/L
AUC at 72 h [30]: 549 µg·h/mL
Activity (Rattus norvegicus [31]): 42 µmol/L
Activity (Rattus norvegicus [32]): 118 U/L
